{"source": "patent US10202411B2", "about": "“3′-substituted methyl or alkynyl nucleosides nucleotides for the treatment of HCV” (priority 2014, dated 2019)", "key": {"[1]": {"biological_target": "wild-type HCV genotype 1b NS5B protein (Hepatitis C virus genotype 1b (isolate Con1) (HCV), UniProt Q9WMX2)", "assay": "HCV polymerase enzyme assay, wild-type", "format": "biochemical", "conditions": "nucleoside triphosphate form, recombinant HCV genotype 1b NS5B", "source_text": "(§1) Test compounds in the form of nucleoside triphosphates were examined for inhibitory activity against purified HCV polymerase in a standard assay. Bacterial expression constructs encoding the approximately 65 kDa HCV genotype 1b NS5B protein were used to generate recombinant HCV polymerases (with a deletion of the 21 carboxy terminal amino acids). Both the wild-type genotype 1b protein and protein containing the S282T mutation were expressed and purified for use in the enzymatic activity assay.\n(§2) The enzymatic activity assay measured the inhibitory effect of increasing concentrations of test compound on the incorporation of α-[^33P]-labeled nucleotide into trichloroacetic acid-precipitable material. Recombinant polymerase and synthetic RNA template were combined in reaction buffer containing ribonucleoside triphosphates, α-[^33P]-labeled nucleotide and eight concentrations of test compound in three-fold dilutions. Reactions were incubated for two hours at 30° C.\n(§3) Reactions were terminated by the addition of ice-cold trichloroacetic acid and sodium pyrophosphate to promote precipitation of newly-synthesized ribonucleic acid. Precipitable material from the reactions was collected by filtration onto 96-well filter plates, washed extensively with water, and quantified by liquid scintillation.\n(§4) The inhibitory activity of test compounds was determined by fitting results to dose-response curves using XLfit software."}, "[2]": {"tested_on": "HCV genotype 1b replicon", "assay": "HCV replicon assay (Zluc luciferase reporter)", "format": "cell-based", "method": "Huh-7-derived cell line (Zluc) that harbors an HCV genotype 1b replicon and a luciferase reporter gene was grown in Dulbecco's Modified Eagle Medium (DMEM) supplemented with 10% fetal bovine serum, 2 mM GlutaMAX, 1% MEM nonessential amino acids, 100 IU/mL penicillin, 100 μg/mL streptomycin, and 0.5 mg/mL Geneticin® (G418). For dose response testing the cells were seeded in 96-well plates at 7.5×10^3 cells per well in a volume of 50 μL, and incubated at 37° C./5% CO2. Drug solutions were made up freshly in Huh-7 media as 2× stocks. Ten additional 5-fold dilutions were prepared from these stocks in DMEM without G418. At least three hours after Zluc cells were seeded, drug treatment was initiated by adding 50 μL of drug dilutions to the plates in duplicate. Final concentrations of drug ranged from 100 μM to 0.0000512 μM. Cells were then incubated at 37° C./5% CO2. Alternatively, compounds were tested at two concentrations (1 μM and 10 μM). […] After 72 hours of incubation, the inhibition of HCV replication was measured by quantification of photons emitted after mono-oxygenation of 5′-fluoroluciferin to oxyfluoroluciferin by firefly luciferase. For this, media was removed from the plates via gentle tapping. Fifty microliters of ONE-glo luciferase assay reagent was added to each well. The plates were shaken gently for 3 min at room temperature and luminescence was measured on a Victor^3 V 1420 multilabel counter (Perkin Elmer) with a 1 second read time using a 700 nm cut-off filter. The EC50 values were calculated from dose response curves from the resulting best-fit equations determined by Microsoft Excel and XLfit 4.1 software. When screening at two fixed concentrations, the results were expressed as % inhibition at 1 μM and 10 μM."}, "[3]": {"tested_on": "Zluc cells", "assay": "Cytotoxicity evaluation, CellTiter-Blue Cell Viability Assay", "conditions": "read-out: HCV Replicon CC50; Zluc cells, CellTiter-Blue cell viability"}, "[4]": {"biological_target": "HCV genotype 1b NS5B protein containing the S282T mutation (Hepatitis C virus genotype 1b (isolate Con1) (HCV), UniProt Q9WMX2, S2701T)", "assay": "HCV polymerase enzyme assay, S282T mutant", "format": "biochemical", "conditions": "nucleoside triphosphate form, recombinant HCV genotype 1b NS5B", "source_text": "as §1\nas §2, with “Reactions were incubated for two hours at 30° C.” left out\nas §3, §4"}, "[5]": {"assay": "Pharmacokinetics of liver triphosphate following a single oral dose in CD-1 mice", "format": "in vivo", "conditions": "CD-1 male mice; for Ms Liver TP AUC: integrated concentration; for Ms Liver TP Cmax: single point concentration", "method": "A single oral dose of Compound 1 at 10 mg/kg in PEG 200 (dose volume 5 mL/kg) was administered to nine CD-1 male mice. Five untreated animals were used for the collection of control liver. Liver samples were collected from three animals per time point at 4, 12 and 24 hours post dose. Liver specimens were collected from all animals immediately after the incision. Freezing forceps stored in liquid nitrogen were used to freeze the liver before excision.\nLiver samples were analyzed for the active species nucleoside triphosphate by LC-MS/MS. The triphosphate levels were assayed by homogenizing (on ice) a known weight of mouse liver with 4× volume of 0.95 M trichloroacetic acid (TCA). Internal standard solution was added to the homogenate followed by neutralization with 20% ammonium hydroxide solution and addition of 500 μL 1% formic acid. The tissue samples were extracted by weak anion exchange solid phase extraction (SPE). Post extraction, the eluates were evaporated under nitrogen, followed by reconstitution before injection onto the LC-MS/MS system. The samples were chromatographed on a Luna NH2 column using a gradient system of ammonium acetate (1 mM to 20 mM and pH 8.0 to pH 10.0) in water and acetonitrile (70:30). The analyte was detected and quantified by tandem mass spectrometry in positive ion mode on an API4000 equipped with a Turbo Ionspray® interface."}, "[6]": {"assay": "in vitro", "conditions": "human"}, "[7]": {"assay": "Cytotoxicity evaluation, CellTiter-Blue Cell Viability Assay", "conditions": "human"}, "[8]": {"conditions": "Huh-7-derived Zluc cells, genotype 1b replicon, luciferase, 72 hours; read-out: HCV Replicon EC50"}}, "note": "Read-outs that look alike come from different tables or passages of the source."}
{"smiles": "Nc1ncnc2c1ncn2[C@@H]1O[C@H](COP(=O)(O)OP(=O)(O)OP(=O)(O)O)[C@@H](CF)[C@H]1O", "note": "[Compound 326]", "values": [{"measurement": "IC50", "setting": "[1]", "result": "1 to 10", "unit": "µM"}]}
{"smiles": "C[C@@H](NP1(=O)OC[C@H]2[C@@H](O)[C@H](n3ccc(=O)[nH]c3=O)O[C@@H]2CO1)C(=O)OCc1ccccc1", "note": "(single isomer, unassigned) [Compound 120a (Diastereomer 2)]", "values": [{"measurement": "EC50", "setting": "[2]; [8]", "result": "> 10", "unit": "µM"}, {"measurement": "CC50", "setting": "[3]", "result": "> 50", "unit": "µM"}]}
{"smiles": "CC(C)OC(=O)[C@@H](C)NP1(=O)OC[C@H]2[C@@H](O)[C@H](n3ccc(=O)[nH]c3=O)O[C@@H]2CO1", "note": "(single isomer, unassigned) [Compound 110a (Diastereomer 2)]", "values": [{"measurement": "EC50", "setting": "[2]; [8]", "result": "> 10", "unit": "µM"}, {"measurement": "CC50", "setting": "[3]", "result": "> 50", "unit": "µM"}]}
{"smiles": "C[C@@H](NP(=O)(OC[C@H]1O[C@@H](n2cnc3c(=O)[nH]c(N)nc32)[C@H](O)[C@@H]1CF)Oc1ccccc1)C(=O)OC1CCCC1", "note": "(single isomer, unassigned) [Compound 124a Diastereomer 2]", "values": [{"measurement": "EC50", "setting": "[2]; [8]", "result": "> 10", "unit": "µM"}, {"measurement": "CC50", "setting": "[3]", "result": "> 50", "unit": "µM"}]}
{"smiles": "CC(C)OC(=O)[C@@H](C)NP(=S)(OC[C@H]1O[C@@H](n2ccc(=O)[nH]c2=O)[C@H](O)[C@@H]1CO)Oc1ccccc1", "note": "(single isomer, unassigned) [Compound 122a Diastereomer 2]", "values": [{"measurement": "EC50", "setting": "[2]; read-out: HCV Replicon EC50; Huh-7-derived Zluc cells, genotype 1b replicon, luciferase, 72 hours", "result": "> 10", "unit": "µM"}, {"measurement": "CC50", "setting": "[3]", "result": "> 50", "unit": "µM"}]}
{"smiles": "Nc1nc2c(ncn2[C@@H]2O[C@H](CO)[C@@H](CO)[C@H]2O)c(=O)[nH]1", "note": "[Compound 208]", "values": [{"measurement": "EC50", "setting": "[2]; [8]", "result": "> 10", "unit": "µM"}, {"measurement": "CC50", "setting": "[3]", "result": "> 50", "unit": "µM"}]}
{"smiles": "C[C@@H](NP(=O)(OC[C@H]1O[C@@H](n2ccc(=O)[nH]c2=O)[C@H](O)[C@@H]1CO)Oc1ccccc1)C(=O)OCc1ccccc1", "note": "(single isomer, unassigned) [Compound 123a Diastereomer 2]", "values": [{"measurement": "EC50", "setting": "[2]; [8]", "result": "> 10", "unit": "µM"}, {"measurement": "CC50", "setting": "[3]", "result": "> 50", "unit": "µM"}]}
{"smiles": "Nc1nc2c(ncn2[C@@H]2O[C@H](COP(=O)(O)OP(=O)(O)OP(=O)(O)O)[C@@H](CO)[C@H]2O)c(=O)[nH]1", "note": "[Compound 308]", "values": [{"measurement": "IC50", "setting": "[1]", "result": "< 0.25", "unit": "µM"}, {"measurement": "IC50", "setting": "[4]", "result": "< 0.25", "unit": "µM"}]}
{"smiles": "CC(C)OC(=O)[C@H](C)NP(=O)(OCCSC(=O)C(C)(C)C)OC[C@H]1O[C@@H](n2ccc(N)nc2=O)[C@H](O)[C@@H]1CO", "note": "(single isomer, unassigned) [Compound 106b (Mixture of diastereomers)]", "values": [{"measurement": "EC50", "setting": "[2]; [8]", "result": "> 10", "unit": "µM"}, {"measurement": "CC50", "setting": "[3]", "result": "> 50", "unit": "µM"}]}
{"smiles": "CC(C)OC(=O)C(C)NP(=O)(NC(C)C(=O)OC(C)C)OC[C@H]1O[C@@H](n2ccc(=O)[nH]c2=O)[C@H](O)[C@@H]1CO", "note": "(some centres unmarked) [Compound 116]", "values": [{"measurement": "EC50", "setting": "[2]; [8]", "result": "> 10", "unit": "µM"}, {"measurement": "CC50", "setting": "[3]", "result": "> 50", "unit": "µM"}]}
{"smiles": "Nc1ncnc2c1ncn2[C@@H]1O[C@H](COP(=O)(O)OP(=O)(O)OP(=O)(O)O)[C@@H](CO)[C@H]1O", "note": "[Compound 307]", "values": [{"measurement": "IC50", "setting": "[1]", "result": "0.25 to 1", "unit": "µM"}]}
{"smiles": "CCOc1nc(N)nc2c1ncn2[C@@H]1O[C@H](COP(=O)(N[C@H](C)C(=O)OC(C)C)Oc2ccccc2)[C@@H](CF)[C@H]1O", "note": "(single isomer, unassigned) [Compound 125a Diastereomer 1]", "values": [{"measurement": "EC50", "setting": "[2]; Hepatitis C virus; Huh-7-derived Zluc cells, genotype 1b replicon, luciferase, 72 hours; read-out: HCV Replicon EC50", "result": "> 10", "unit": "µM"}, {"measurement": "Ms Liver TP AUC", "setting": "[5]", "result": "+++ (500 <+++ ≤1500)"}, {"measurement": "Ms Liver TP Cmax", "setting": "[5]", "result": "+++ (50 < +++ ≤100)"}, {"measurement": "CC50", "setting": "[6]", "result": "> 50", "unit": "µM"}]}
{"smiles": "Nc1nc2c(ncn2[C@@H]2O[C@H](COP(=O)(O)OP(=O)(O)OP(=O)(O)O)[C@@H](CF)[C@H]2O)c(=O)[nH]1", "note": "[Compound 327]", "values": [{"measurement": "IC50", "setting": "[1]", "result": "< 0.25", "unit": "µM"}, {"measurement": "IC50", "setting": "[4]", "result": "< 0.25", "unit": "µM"}]}
{"smiles": "CCOc1nc(N)nc2c1ncn2[C@@H]1O[C@H](COP(=O)(N[C@H](C)C(=O)OC(C)C)Oc2ccccc2)[C@@H](CF)[C@H]1O", "note": "(single isomer, unassigned) [Compound 125a Diastereomer 2]", "values": [{"measurement": "EC50", "setting": "[2]; [8]", "result": "> 10", "unit": "µM"}, {"measurement": "Ms Liver TP AUC", "setting": "[5]", "result": "+++ (500 <+++ ≤1500)"}, {"measurement": "Ms Liver TP Cmax", "setting": "[5]", "result": "+++ (50 < +++ ≤100)"}, {"measurement": "CC50", "setting": "[3]", "result": "> 50", "unit": "µM"}]}
{"smiles": "CC(C)OC(=O)[C@@H](C)NP(=S)(OC[C@H]1O[C@@H](n2ccc(=O)[nH]c2=O)[C@H](O)[C@@H]1CO)Oc1ccccc1", "note": "(single isomer, unassigned) [Compound 122a Diastereomer 1]", "values": [{"measurement": "EC50", "setting": "[2]; Hepatitis C virus, 72 h, read-out: HCV Replicon EC50", "result": "> 10", "unit": "µM"}, {"measurement": "CC50 at 72 h", "setting": "[7]", "result": "> 50", "unit": "µM"}]}
